Measurements taken from paper PMC2632993, “Conformational changes in α7 acetylcholine receptors underlying allosteric modulation by divalent cations” (BMC Pharmacology, 2009).

Legend:
Type in all cases: cell-based, chick
[1] = target: T1, α7 AChR M^37C mutant (C^115A/L^247T background) (Gallus gallus, UniProt P22770, C138A/L270T/M60C); test: ACh dose-response, two-electrode voltage clamp in Xenopus oocytes
Description: (§1) A cDNA clone of the chick α7 receptor containing two mutations (C^115A, L^247T) was used as the parental phenotype for mutations described in this study. We mutated the lone unpaired cysteine in the extracellular domain (C^115) to alanine to allow for a more straightforward interpretation of thiol modification experiments. […] We included the mutation of leucine 247 in the M2 transmembrane domain (L^247T; L9'T) because of its large current amplitudes and non-desensitizing kinetics compared to wild-type α7 receptors. […] All mutations were introduced by site-directed mutagenesis using the QuikChange method (Agilent Technologies, La Jolla, CA) as described previously, and were confirmed by DNA sequencing.
(§2) cRNA was prepared using the T7 RNA polymerase and mMessage mMachine kit as described by the manufacturer (Applied Biosystems, Austin, TX). Oocytes were surgically removed and prepared from female Xenopus laevis in accordance with UNC Institutional Animal Care and Use Committee guidelines. Oocytes were injected with 20 ng of cRNA and incubated at 18°C in ND96 (96 mM NaCl, 2 mM KCl, 1 mM MgCl2, 1.8 mM CaCl2, 5 mM Na pyruvate, 50 μg/ml gentamicin, 5 mM HEPES, pH 7.5) for 2–5 days before use. For some mutants we co-injected cRNA encoding the human RIC-3 [38], a protein shown to enhance expression of α7 AChRs in both mammalian cells and oocytes.
(§3) Oocytes were superfused in normal extracellular solution containing a reduced Ca^2+ concentration (ESLC; 96 mM NaCl, 2 mM KCl, 1 mM MgCl2, 0.1 mM CaCl2, and 10 mM HEPES, pH 7.5). […] Two-electrode voltage clamp was performed with a GeneClamp 500B controlled by pCLAMP8 software (Molecular Devices, Sunnyvale, CA). Electrodes were filled with 3 M KCl contacting Ag-AgCl wires and had resistances of 0.5 to 2.0 MΩ. Currents were recorded at a constant holding potential of -60 mV. Currents were low pass filtered at 50 Hz and sampled at 100 Hz. Agonist dose-response curves were obtained as described previously, and data were fit to the Hill equation using Origin software (Microcal Software, Northampton, MA).
(§4) MTSEA was prepared daily in distilled water and stored on ice. Stock solution was diluted to the appropriate working concentration in ESLC immediately before each application. […] To measure the effect of Ba^2+ on modification rates we pre-applied 10 mM Ba^2+ for 30 seconds prior to co-application of 10 mM Ba^2+ plus MTSEA. […] Kinetic data were analyzed as described previously; rate data were fit to a single exponential to extract a pseudo-first order rate constant; this was divided by the MTSEA concentration used to determine the second order rate constant for thiol modification.

[2] = target: T2, α7 AChR M^40C/E^172Q mutant (C^115A/L^247T background) (Gallus gallus, UniProt P22770, C138A/E195Q/L270T/M63C); test: as above; conditions: co-expression with human RIC-3
Description: as §1, §2, §3, §4

[3] = target: T3, α7 AChR E^172C mutant (C^115A/L^247T background) (Gallus gallus, UniProt P22770, C138A/E195C/L270T); test: as above; conditions: co-expression with human RIC-3
Description: as §1, §2, §3, §4

[4] = target: T4, α7 AChR E^44C mutant (C^115A/L^247T background) (Gallus gallus, UniProt P22770, C138A/E67C/L270T); test: as above
Description: as §1, §2, §3, §4

[5] = target: α7 C^115A/L^247T receptor (Gallus gallus, UniProt P22770, C138A/L270T); test: as above
Description: as §1, §2, §3, §4

[6] = target: T5, α7 AChR N^52C mutant (C^115A/L^247T background) (Gallus gallus, UniProt P22770, C138A/L270T/N75C); test: as above
Description: as §1, §2, §3, §4

[7] = target: T6, α7 AChR N^170C mutant (C^115A/L^247T background) (Gallus gallus, UniProt P22770, C138A/L270T/N193C); test: as above; conditions: co-expression with human RIC-3
Description: as §1, §2, §3, §4

[8] = target: T7, α7 AChR M^40C mutant (C^115A/L^247T background) (Gallus gallus, UniProt P22770, C138A/L270T/M63C)
T7 construct: expressed in transfected cells; host or cells: Xenopus laevis oocytes injected with cRNA
Description: as §1, with “sequencing. […]” for “sequencing.”
Oocytes were superfused in normal extracellular solution containing a reduced Ca^2+ concentration (ESLC; 96 mM NaCl, 2 mM KCl, 1 mM MgCl2, 0.1 mM CaCl2, and 10 mM HEPES, pH 7.5). […] Currents were recorded at a constant holding potential of -60 mV. […]
MTSEA was prepared daily in distilled water and stored on ice. […] Kinetic data were analyzed as described previously; rate data were fit to a single exponential to extract a pseudo-first order rate constant; this was divided by the MTSEA concentration used to determine the second order rate constant for thiol modification.

[9] = target: T1, α7 AChR M^37C mutant (C^115A/L^247T background); test: MTSEA thiol modification rate (SCAM) from ACh-evoked currents in oocytes; conditions: for pseudo first-order rate constant of MTSEA modification: 5 μM MTSEA, single experiment
Description: (§5) ACh-evoked current amplitudes decreased following brief, repeated exposure to a limiting concentration of MTSEA (5 μM, 15 seconds). To ensure that the modification reactions were complete, all rate measurements included a final prolonged application of ~100-fold higher concentrations of MTSEA (Fig. 3A and 3B, right). Currents measured following this application represent the endpoint of the reaction between MTSEA and receptors. When the same protocol included Ba^2+ pretreatment and co-application with MTSEA (see Methods), the decreases in current amplitudes were slowed but the same endpoint was obtained (Fig. 3B). Normalized current amplitudes were plotted as a function of the cumulative time of exposure to MTSEA, and pseudo first-order rates were extracted from the single-exponential fits (Fig. 3C).
(§6) Figure 3 Barium slows the rate of MTSEA modification at M^37C. Example of experimental paradigm used to assess Ba^2+ effects on modification rates. […] Endpoints of MTSEA modification are determined by prolonged application of 500 μM MTSEA (right). (B) The same protocol, including Ba^2+ pretreatment and co-application with MTSEA. Current traces are truncated in both (A) and (B) between consecutive MTSEA applications; in all cases the currents were allowed to return to baseline prior to the next application of MTSEA ± ACh. (C) Peak current amplitudes from (A) and (B) are normalized and plotted versus total MTSEA exposure time. Data from this single experiment (no error bars) are fitted to a single-exponential decay (solid line) to extract an apparent pseudo first-order rate constant. The pseudo first-order rate constants calculated in this experiment were 0.011 s^-1 and 0.0019 s^-1 for control (A) and +Ba^2+ (B) measurements, respectively. Second-order rate constants are calculated from these values (Figures 4–6; Table 2).
(§7) Oocytes were superfused in normal extracellular solution containing a reduced Ca^2+ concentration (ESLC; 96 mM NaCl, 2 mM KCl, 1 mM MgCl2, 0.1 mM CaCl2, and 10 mM HEPES, pH 7.5). This solution minimized Ca^2+ influx and eliminated Ca^2+-activated chloride currents. Two-electrode voltage clamp was performed with a GeneClamp 500B controlled by pCLAMP8 software (Molecular Devices, Sunnyvale, CA). Electrodes were filled with 3 M KCl contacting Ag-AgCl wires and had resistances of 0.5 to 2.0 MΩ. Currents were recorded at a constant holding potential of -60 mV. Currents were low pass filtered at 50 Hz and sampled at 100 Hz. Agonist dose-response curves were obtained as described previously, and data were fit to the Hill equation using Origin software (Microcal Software, Northampton, MA).
(§8) MTSEA was prepared daily in distilled water and stored on ice. Stock solution was diluted to the appropriate working concentration in ESLC immediately before each application. […] The limiting dose, yielding 20–40% of the maximal MTSEA effect, was identified for each mutant. […] To measure the effect of Ba^2+ on modification rates we pre-applied 10 mM Ba^2+ for 30 seconds prior to co-application of 10 mM Ba^2+ plus MTSEA. This concentration of Ba^2+ is equivalent to an approximate […] for the modulatory effects in both parental and mutant AChRs. Kinetic data were analyzed as described previously; rate data were fit to a single exponential to extract a pseudo-first order rate constant; this was divided by the MTSEA concentration used to determine the second order rate constant for thiol modification.

[10] = target: T2, α7 AChR M^40C/E^172Q mutant (C^115A/L^247T background); test: as above; conditions: ± standard error
Description: as §5, §6, §7, §8

[11] = target: T3, α7 AChR E^172C mutant (C^115A/L^247T background); test: as above; conditions: ± standard error
Description: as §5, §6, §7, §8

[12] = target: T4, α7 AChR E^44C mutant (C^115A/L^247T background); test: as above
Description: as §5, §6, §7, §8

[13] = target: T7, α7 AChR M^40C mutant (C^115A/L^247T background); test: as above; conditions: ± standard error
Description: as §5, §6, §7, §8

[14] = target: T5, α7 AChR N^52C mutant (C^115A/L^247T background); test: as above; conditions: ± standard error
Description: as §5, §6, §7, §8

[15] = target: T6, α7 AChR N^170C mutant (C^115A/L^247T background); test: as above; conditions: ± standard error
Description: as §5, §6, §7, §8

[16] = MTSEA + 10 mM Ba^2+ (30 s pre-application), ± standard error
[17] = MTSEA + ~EC110 ACh, ± standard error
[18] = co-expression with human RIC-3, MTSEA + 10 mM Ba^2+ (30 s pre-application)
[19] = co-expression with human RIC-3, MTSEA + ~EC110 ACh
[20] = co-expression with human RIC-3, MTSEA alone
[21] = MTSEA + 10 mM Ba^2+ (30 s pre-application)

## CC(=O)OCC[N+](C)(C)C [ACh, acetylcholine chloride]
[1]
  ACh Imax: 0.92 μA
[2]
  ACh Imax: 0.7 μA
[3]
  ACh Imax: 1.3 μA
[4]
  ACh Imax: 5.4 μA
[4]; + 10 mM BaCl2
  Hill coefficient of ACh dose-response: 2.9 ± 0.7
[4]; -Ba^2+
  Hill coefficient of ACh dose-response: 1.7 ± 0.2
[5]
  ACh Imax: 6.9 μA
[5]; + 10 mM BaCl2
  Hill coefficient of ACh dose-response: 1.9 ± 0.4
[5]; -Ba^2+
  Hill coefficient of ACh dose-response: 2.5 ± 0.2
[6]
  ACh Imax: 0.34 μA
[7]
  ACh Imax: 1.7 μA
[8]
  ACh Imax: 3.0 μA

## CS(=O)(=O)SCCN [MTSEA, 2-aminoethylmethane thiosulfonate]
[9]; +Ba^2+
  pseudo first-order rate constant of MTSEA modification: 0.0019 s⁻¹
[9]; control
  pseudo first-order rate constant of MTSEA modification: 0.011 s⁻¹
[9]; [16]
  MTSEA modification rate (second-order rate constant), + Ba^2+: 0.40 ± 0.02 (5) × 10^3, M^-1 S^-1
[9]; [17]
  MTSEA modification rate (second-order rate constant), + ACh: 0.30 ± 0.05 (4) × 10^3, M^-1 S^-1
[9]; MTSEA alone, ± standard error
  MTSEA modification rate (second-order rate constant), control: 2.4 ± .03 (10) × 10^3, M^-1 S^-1
[10]; [18]
  MTSEA modification rate (second-order rate constant), + Ba^2+: 2.0 ± 0.3 (6) × 10^3, M^-1 S^-1
[10]; [19]
  MTSEA modification rate (second-order rate constant), + ACh: 1.3 ± 0.1 (5) × 10^3, M^-1 S^-1
[10]; [20]
  MTSEA modification rate (second-order rate constant), control: 14 ± 0.5 (5) × 10^3, M^-1 S^-1
[11]; [18]
  MTSEA modification rate (second-order rate constant), + Ba^2+: 7.3 ± 0.3 (6) × 10^3, M^-1 S^-1
[11]; [19]
  MTSEA modification rate (second-order rate constant), + ACh: 3.5 ± 0.1 (5) × 10^3, M^-1 S^-1
[11]; [20]
  MTSEA modification rate (second-order rate constant), control: 15 ± 0.4 (5) × 10^3, M^-1 S^-1
[12]; [16]
  MTSEA modification rate (second-order rate constant), + Ba^2+: 9.3 ± 0.1(8) × 10^3, M^-1 S^-1
[12]; [17]
  MTSEA modification rate (second-order rate constant), + ACh: 0.90 ± 0.05 (4) × 10^3, M^-1 S^-1
[12]; MTSEA alone, ± standard error
  MTSEA modification rate (second-order rate constant), control: 23 ± 0.7 (4) × 10^3, M^-1 S^-1
[12]; higher with Ba^2+
  MTSEA modification rate in the presence of Ba^2+ compared to that in the presence of ACh: ~ 10 fold
[13]; [21]
  MTSEA modification rate (second-order rate constant), + Ba^2+: 2.8 ± 0.05 (7) × 10^3, M^-1 S^-1
[13]; MTSEA + ~EC110 ACh
  MTSEA modification rate (second-order rate constant), + ACh: 2.2 ± 0.4 (3) × 10^3, M^-1 S^-1
[13]; MTSEA alone
  MTSEA modification rate (second-order rate constant), control: 16 ± 0.2 (13) × 10^3, M^-1 S^-1
[14]; [21]
  MTSEA modification rate (second-order rate constant), + Ba^2+: 0.26 ± 0.02 (7) × 10^3, M^-1 S^-1
[14]; MTSEA + ~EC110 ACh
  MTSEA modification rate (second-order rate constant), + ACh: 1.4 ± 0.04 (7) × 10^3, M^-1 S^-1
[14]; MTSEA alone
  MTSEA modification rate (second-order rate constant), control: 0.40 ± .08 (9) × 10^3, M^-1 S^-1
[15]; [18]
  MTSEA modification rate (second-order rate constant), + Ba^2+: 3.7 ± 0.06 (9) × 10^3, M^-1 S^-1
[15]; [19]
  MTSEA modification rate (second-order rate constant), + ACh: 5.7 ± 0.1 (7) × 10^3, M^-1 S^-1
[15]; [20]
  MTSEA modification rate (second-order rate constant), control: 3.3 ± .05 (7) × 10^3, M^-1 S^-1
